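Cells were grown in 96-well plates and exposed to each compound for 48 hours at five concentrations; endpoints were interpolated linearly between bracketing concentrations, or set to the highest concentration if not reached. TGI marks complete inhibition of growth.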
Tests used:
Experiment in all cases: DTP human tumour cell line panel, 48 h
[1] = system: OVCAR-3 ovarian
[2] = system: HL-60(TB) leukemia
[3] = system: CAKI-1 renal
[4] = system: NCI-H23 lung
[5] = system: MOLT-4 leukemia
[6] = system: ACHN renal
[7] = system: TK-10 renal
[8] = system: NCI-H460 lung
[9] = system: A549 NSCLC
[10] = system: DMS 114 small cell lung
[11] = system: SW-620 colon
[12] = system: SNB-78 CNS
[13] = system: SF-295 CNS
[14] = system: M14 melanoma
[15] = system: UACC-62 melanoma
[16] = system: XF 498 CNS
[17] = system: SK-MEL-28 melanoma
[18] = system: DLD-1 colon
[19] = system: K-562 leukemia
[20] = system: UO-31 renal
[21] = system: OVCAR-4 ovarian
[22] = system: SF-268 CNS
[23] = system: COLO 205 colon
[24] = system: SK-OV-3 ovarian
[25] = system: SF-539 CNS
[26] = system: RPMI-8226 leukemia
[27] = system: M19-MEL melanoma
[28] = system: HCT-116 colon
[29] = system: UACC-257 melanoma
[30] = system: HT29 colon
[31] = system: EKVX NSCLC
[32] = system: LOX IMVI melanoma
[33] = system: MALME-3M melanoma
[34] = system: SN12C renal
[35] = system: A498 renal
[36] = system: SK-MEL-2 melanoma
[37] = system: SK-MEL-5 melanoma
[38] = system: HCT-15 colon
[39] = system: KM20L2 colon
[40] = system: OVCAR-5 ovarian
[41] = system: SNB-19 CNS
[42] = system: HOP-18 NSCLC
[43] = system: RXF 393 renal
[44] = system: KM12 colon
[45] = system: DMS 273 small cell lung
[46] = system: IGROV1 ovarian
[47] = system: HOP-62 NSCLC
[48] = system: U251 CNS
[49] = system: SNB-75 CNS
[50] = system: HCC-2998 colon
[51] = system: 786-0 renal
[52] = system: LXFL 529 NSCLC
[53] = system: CCRF-CEM leukemia
[54] = system: OVCAR-8 ovarian
[55] = system: HOP-92 NSCLC
[56] = system: NCI-H226 lung

SMILES: COc1ccc(OC)c2cc(C3(C)SCCCS3)ccc12
- TGI [1]: > 100 µM
- TGI [2]: > 100 µM
- TGI [3]: > 100 µM
- TGI [4]: > 100 µM
- TGI [5]: > 100 µM
- TGI [6]: > 100 µM
- TGI [7]: > 100 µM
- TGI [8]: > 100 µM
- TGI [9]: > 100 µM
- TGI [10]: > 100 µM
- TGI [11]: > 100 µM
- TGI [12]: > 100 µM
- TGI [13]: > 100 µM
- TGI [14]: > 100 µM
- TGI [15]: > 100 µM
- TGI [16]: > 100 µM
- TGI [17]: > 100 µM
- TGI [18]: > 100 µM
- TGI [19]: > 100 µM
- TGI [20]: > 100 µM
- TGI [21]: > 100 µM
- TGI [22]: > 100 µM
- TGI [23]: > 100 µM
- TGI [24]: > 100 µM
- TGI [25]: > 100 µM
- TGI [26]: > 100 µM
- TGI [27]: > 100 µM
- TGI [28]: > 100 µM
- TGI [29]: > 100 µM
- TGI [30]: > 100 µM
- TGI [31]: > 100 µM
- TGI [32]: > 100 µM
- TGI [33]: > 100 µM
- TGI [34]: > 100 µM
- TGI [35]: > 100 µM
- TGI [36]: > 100 µM
- TGI [37]: > 100 µM
- TGI [38]: > 100 µM
- TGI [39]: > 100 µM
- TGI [40]: > 100 µM
- TGI [41]: > 100 µM
- TGI [42]: > 100 µM
- TGI [43]: 77 µM
- TGI [44]: > 100 µM
- TGI [45]: > 100 µM
- TGI [46]: > 100 µM
- TGI [47]: > 100 µM
- TGI [48]: > 100 µM
- TGI [49]: > 100 µM
- TGI [50]: > 100 µM
- TGI [51]: > 100 µM
- TGI [52]: > 100 µM
- TGI [53]: > 100 µM
- TGI [54]: > 100 µM

SMILES: COc1cc(-c2c(C)c(C)nc(OC)c2C#N)cc(OC)c1OC
- TGI [1]: > 100 µM
- TGI [2]: > 100 µM
- TGI [4]: > 100 µM
- TGI [5]: > 100 µM
- TGI [6]: > 100 µM
- TGI [7]: > 100 µM
- TGI [8]: > 100 µM
- TGI [9]: > 100 µM
- TGI [10]: > 100 µM
- TGI [11]: > 100 µM
- TGI [12]: > 100 µM
- TGI [13]: > 100 µM
- TGI [14]: > 100 µM
- TGI [15]: > 100 µM
- TGI [17]: > 100 µM
- TGI [18]: > 100 µM
- TGI [19]: > 100 µM
- TGI [20]: > 100 µM
- TGI [21]: > 100 µM
- TGI [22]: > 100 µM
- TGI [23]: > 100 µM
- TGI [24]: > 100 µM
- TGI [25]: > 100 µM
- TGI [26]: > 100 µM
- TGI [27]: > 100 µM
- TGI [28]: > 100 µM
- TGI [29]: > 100 µM
- TGI [30]: > 100 µM
- TGI [31]: > 100 µM
- TGI [55]: > 100 µM
- TGI [33]: > 100 µM
- TGI [34]: > 100 µM
- TGI [35]: > 100 µM
- TGI [36]: > 100 µM
- TGI [37]: > 100 µM
- TGI [38]: > 100 µM
- TGI [39]: > 100 µM
- TGI [41]: > 100 µM
- TGI [42]: > 100 µM
- TGI [43]: > 100 µM
- TGI [44]: > 100 µM
- TGI [56]: > 100 µM
- TGI [46]: > 100 µM
- TGI [47]: > 100 µM
- TGI [48]: > 100 µM
- TGI [49]: > 100 µM
- TGI [50]: > 100 µM
- TGI [51]: > 100 µM
- TGI [52]: > 100 µM
- TGI [53]: > 100 µM
- TGI [54]: > 100 µM

Source: PubChem BioAssay (NCI)
